C[C@H]1[C@H](C)CC[C@]2(C(=O)O)CC[C@]3(C)C(=CC[C@@H]4[C@@]5(C)CC[C@H](O)C(C)(C)[C@@H]5CC[C@]43C)[C@H]12
solubility (mole fraction) (in MIBK, 278.2 K): 0.00094 | solubility (mole fraction) (in MIBK, 283.2 K): 0.00104 | solubility (mole fraction) (in MIBK, 288.2 K): 0.00106 | solubility (mole fraction) (in MIBK, 293.2 K): 0.00109 | solubility (mole fraction) (in MIBK, 298.2 K): 0.00127 | solubility (mole fraction) (in MIBK, 303.2 K): 0.00128 | solubility (mole fraction) (in MIBK, 308.2 K): 0.0015 | solubility (mole fraction) (in MIBK, 313.2 K): 0.00169 | solubility (mole fraction) (in MIBK, 318.2 K): 0.00184 | solubility (mole fraction) (in MTBE, 278.2 K): 0.00167 | solubility (mole fraction) (in MTBE, 283.2 K): 0.00175 | solubility (mole fraction) (in MTBE, 288.2 K): 0.0021 | solubility (mole fraction) (in MTBE, 293.2 K): 0.00248 | solubility (mole fraction) (in MTBE, 298.2 K): 0.00288 | solubility (mole fraction) (in MTBE, 303.2 K): 0.00305 | solubility (mole fraction) (in MTBE, 308.2 K): 0.00311 | solubility (mole fraction) (in MTBE, 313.2 K): 0.00315 | solubility (mole fraction) (in MTBE, 318.2 K): 0.00338 | solubility (mole fraction) (in n-butanol, 278.2 K): 0.00153 | solubility (mole fraction) (in n-butanol, 283.2 K): 0.00168 | solubility (mole fraction) (in n-butanol, 288.2 K): 0.00226 | solubility (mole fraction) (in n-butanol, 293.2 K): 0.00266 | solubility (mole fraction) (in n-butanol, 298.2 K): 0.00334 | solubility (mole fraction) (in n-butanol, 303.2 K): 0.00387 | solubility (mole fraction) (in n-butanol, 308.2 K): 0.00411 | solubility (mole fraction) (in n-butanol, 313.2 K): 0.00466 | solubility (mole fraction) (in n-butanol, 318.2 K): 0.00504
